Source: a compilation of properties of binary mixtures (doi:10.1021/je00020a016)

Test: excess molar enthalpy (molar enthalpy of mixing); xn = mol fraction of the nth substance listed
Conditions: 100 kPa

CCOC(=O)OCC + CC1COC(=O)O1
excess molar enthalpy [kcal/mol]
Conditions | 298.15 K | 313.15 K
x2 = 0.0482 | – | 0.0351
x2 = 0.0668 | 0.033 | –
x2 = 0.0919 | – | 0.0559
x2 = 0.1066 | 0.0504 | –
x2 = 0.1518 | 0.0631 | –
x2 = 0.1528 | – | 0.0698
x2 = 0.1926 | 0.07 | –
x2 = 0.1933 | – | 0.0755
x2 = 0.2623 | 0.0784 | –
x2 = 0.2644 | – | 0.0846
x2 = 0.3231 | 0.0593 | –
x2 = 0.4172 | 0.0605 | –
x2 = 0.4183 | – | 0.0915
x2 = 0.4884 | 0.0822 | –
x2 = 0.4895 | – | 0.0894
x2 = 0.5888 | 0.0765 | –
x2 = 0.6824 | 0.066 | –
x2 = 0.742 | 0.0583 | 0.0607
x2 = 0.8118 | 0.0452 | –
x2 = 0.8519 | 0.0373 | 0.0387
x2 = 0.8962 | 0.0263 | 0.0284
x2 = 0.9452 | 0.0139 | 0.0151
x2 = 0.9718 | 0.00765 | 0.00789

CC1COC(=O)O1 (stereo not drawn) + COC(=O)OC
Conditions | excess molar enthalpy [kcal/mol]
298.15 K, x1 = 0.0474 | 0.0131
298.15 K, x1 = 0.0905 | 0.0203
298.15 K, x1 = 0.1106 | 0.0227
298.15 K, x1 = 0.1428 | 0.0253
298.15 K, x1 = 0.1993 | 0.0272
298.15 K, x1 = 0.2491 | 0.0272
298.15 K, x1 = 0.3989 | 0.0244
298.15 K, x1 = 0.4988 | 0.0217
298.15 K, x1 = 0.5989 | 0.0184
298.15 K, x1 = 0.6656 | 0.0158
298.15 K, x1 = 0.7491 | 0.0127
298.15 K, x1 = 0.7993 | 0.0103
298.15 K, x1 = 0.8566 | 0.00741
298.15 K, x1 = 0.8884 | 0.0055
298.15 K, x1 = 0.9228 | 0.00382
298.15 K, x1 = 0.9598 | 0.00191
313.15 K, x1 = 0.0658 | 0.0217
313.15 K, x1 = 0.1429 | 0.0284
313.15 K, x1 = 0.2001 | 0.0296
313.15 K, x1 = 0.2502 | 0.0294
313.15 K, x1 = 0.3335 | 0.0284
313.15 K, x1 = 0.4002 | 0.0268
313.15 K, x1 = 0.5002 | 0.0232
313.15 K, x1 = 0.6003 | 0.0191
313.15 K, x1 = 0.6669 | 0.0167
313.15 K, x1 = 0.7502 | 0.0129
313.15 K, x1 = 0.8001 | 0.0108
313.15 K, x1 = 0.8563 | 0.00813
313.15 K, x1 = 0.889 | 0.00598
313.15 K, x1 = 0.96 | 0.00215

CCOC(=O)OCC + COC(=O)OC
excess molar enthalpy [kcal/mol]
Conditions | 298.15 K | 313.15 K
x2 = 0.0565 | 0.00765 | 0.00645
x2 = 0.107 | 0.0148 | –
x2 = 0.1522 | – | 0.0179
x2 = 0.1932 | – | 0.0213
x2 = 0.1934 | 0.0234 | –
x2 = 0.2643 | – | 0.0272
x2 = 0.3241 | 0.0349 | –
x2 = 0.4181 | – | 0.0368
x2 = 0.4892 | – | 0.0387
x2 = 0.5896 | – | 0.0387
x2 = 0.6831 | – | 0.0349
x2 = 0.6834 | 0.0373 | –
x2 = 0.7418 | – | 0.0315
x2 = 0.7421 | 0.0335 | –
x2 = 0.8117 | – | 0.0265
x2 = 0.8119 | 0.027 | –
x2 = 0.8518 | – | 0.021
x2 = 0.8962 | 0.017 | –
x2 = 0.8995 | – | 0.0158
x2 = 0.92 | – | 0.0124
x2 = 0.9201 | 0.0141 | –
x2 = 0.9453 | 0.00932 | –
x2 = 0.9718 | – | 0.00454
x2 = 0.9719 | 0.00478 | –
